Patent US12509444B2, “Compounds and methods for CD73 modulation and indications therefor” (Plexxikon Inc., priority 2019, dated 2025)

How the values were obtained:
[1] = biological target: T1, Human CD73 (amino acid residues 27-549) (Homo sapiens, UniProt P21589); assay: CD73 enzymatic assay (luciferase-based indirect assay, CellTiter-Glo); format: biochemical; settings: 0.4 nM CD73, 150 μM AMP, 1 hour at room temperature
T1 construct: Human CD73 (amino acid residues 27-549); His tag (N); made in house; host or cells: E. coli
T1 sequence (P21589 27-549): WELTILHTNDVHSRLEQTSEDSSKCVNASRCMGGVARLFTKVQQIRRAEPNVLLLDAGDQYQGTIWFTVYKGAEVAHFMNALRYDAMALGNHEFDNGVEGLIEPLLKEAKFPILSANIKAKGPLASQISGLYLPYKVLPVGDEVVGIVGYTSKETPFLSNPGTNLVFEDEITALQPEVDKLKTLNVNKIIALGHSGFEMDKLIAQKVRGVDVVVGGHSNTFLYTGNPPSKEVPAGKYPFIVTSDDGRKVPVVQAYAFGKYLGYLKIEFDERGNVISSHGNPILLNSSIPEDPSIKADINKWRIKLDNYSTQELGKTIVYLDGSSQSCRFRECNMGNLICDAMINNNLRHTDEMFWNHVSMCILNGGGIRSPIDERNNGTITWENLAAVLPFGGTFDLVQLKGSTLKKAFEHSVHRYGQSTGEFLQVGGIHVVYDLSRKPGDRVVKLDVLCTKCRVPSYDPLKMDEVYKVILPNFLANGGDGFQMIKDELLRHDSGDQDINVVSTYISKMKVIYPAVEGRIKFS
Method in brief: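 Residual AMP inhibits luciferase, so luminescence reports CD73 turnover; read with CellTiter-Glo 2.0 plus 1 μM final ATP, 30 min. Reaction used 0.4 nM N-His CD73 (27-549, E. coli), 150 μM AMP, HEPES pH 7.4 with Tween 20, 1 h at room temperature. IC50 fitted by nonlinear regression.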

human CD73 = biological target: T2, human CD73 (Homo sapiens, UniProt P21589); assay: Inhibitor activity against CD73 in cell based assay (CD73 expressing CHO-K1 cells); settings: CHO-K1 cells expressing human CD73, 150 μM AMP, 4 hours of incubation; read-out: CHO-K1 CELL VARIANT: CD73 IC50
T2 construct: expressed in transfected cells
T2 sequence (P21589 27-549): T1 sequence (P21589 27-549)
Method in brief: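 Residual supernatant AMP was quantified via CellTiter-Glo luminescence (1 μM ATP added, 30 min, room temperature) after a 4 h exposure of human CD73-expressing CHO-K1 cells to 150 μM AMP plus compound, top final 10 μM, 8 points. IC50 came from nonlinear regression of percent inhibition.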

| SMILES | IC50 [1] [µM] | IC50 (human CD73) [µM] |
| --- | --- | --- |
| O=C(N[C@H]1CC[C@@H](NC2CC3CCC2C3)CC1)O[C@@H]1CCN(c2cn[nH]c(=O)c2Cl)C1 (stereo partly drawn) [P-0488, (R)-1-(5-chloro-6-oxo-1,6-dihydropyridazin-4-yl)pyrrolidin-3-yl ((1R,4S)-4-(((1S,4R)-bicyclo[2.2.1]heptan-2-yl)amino)cyclohexyl)carbamate] | 0.001 to 10 | 0.001 to 10 |
| O=C(N[C@H]1CC[C@@H](NC2CCS(=O)(=O)CC2)CC1)O[C@@H]1CCN(c2cn[nH]c(=O)c2Cl)C1 [P-0489, (R)-1-(5-chloro-6-oxo-1,6-dihydropyridazin-4-yl)pyrrolidin-3-yl ((1s,4S)-4-((1,1-dioxidotetrahydro-2H-thiopyran-4-yl)amino)cyclohexyl)carbamate] | 0.001 to 10 | 0.001 to 10 |
| O=C(NC1CCN(C(=O)Nc2ccc(F)cc2F)CC1)O[C@@H]1CCN(c2cn[nH]c(=O)c2Cl)C1 [P-0490, (R)-1-(5-chloro-6-oxo-1,6-dihydropyridazin-4-yl)pyrrolidin-3-yl (1-((2,4-difluorophenyl)carbamoyl)piperidin-4-yl)carbamate] | 0.001 to 10 | 0.001 to 10 |
| O=C(NC1CCN(C(=O)Nc2cc(F)ccc2F)CC1)O[C@@H]1CCN(c2cn[nH]c(=O)c2Cl)C1 [P-0491, (R)-1-(5-chloro-6-oxo-1,6-dihydropyridazin-4-yl)pyrrolidin-3-yl (1-((2,5-difluorophenyl)carbamoyl)piperidin-4-yl)carbamate] | 0.001 to 10 | 0.001 to 10 |
| O=C(NC1CCN(C(=O)Nc2ccc(OC(F)(F)F)cc2)CC1)O[C@@H]1CCN(c2cn[nH]c(=O)c2Cl)C1 [P-0492, (R)-1-(5-chloro-6-oxo-1,6-dihydropyridazin-4-yl)pyrrolidin-3-yl (1-((4-(trifluoromethoxy)phenyl)carbamoyl)piperidin-4-yl) carbamate] | 0.001 to 10 | 0.001 to 10 |

Second part, the compound after the results:

| IC50 [1] [µM] | IC50 (human CD73) [µM] | SMILES |
| --- | --- | --- |
| 0.001 to 10 | 0.001 to 10 | O=C(NC1CCN(C(=O)Nc2cccc(OC(F)F)c2)CC1)O[C@@H]1CCN(c2cn[nH]c(=O)c2Cl)C1 [P-0493, (R)-1-(5-chloro-6-oxo-1,6-dihydropyridazin-4-yl)pyrrolidin-3-yl (1-((3-(difluoromethoxy)phenyl)carbamoyl)piperidin-4-yl) carbamate] |
| 0.001 to 10 | 0.001 to 10 | O=C(NC1CCN(C(=O)Nc2ccccc2Cl)CC1)O[C@@H]1CCN(c2cn[nH]c(=O)c2Cl)C1 [P-0494, (R)-1-(5-chloro-6-oxo-1,6-dihydropyridazin-4-yl)pyrrolidin-3-yl (1-((2-chlorophenyl)carbamoyl)piperidin-4-yl)carbamate] |
| 0.001 to 10 | 0.001 to 10 | O=C(NC1CCN(C(=O)Nc2cc(Cl)cc(Cl)c2)CC1)O[C@@H]1CCN(c2cn[nH]c(=O)c2Cl)C1 [P-0495, (R)-1-(5-chloro-6-oxo-1,6-dihydropyridazin-4-yl)pyrrolidin-3-yl (1-((3,5-dichlorophenyl)carbamoyl)piperidin-4-yl)carbamate] |
| 0.001 to 10 | 0.001 to 10 | N#Cc1c(N2CC[C@@H](OC(=O)NC3CCCC3)C2)cnn(CCO)c1=O [P-0496, (R)-1-(5-cyano-1-(2-hydroxyethyl)-6-oxo-1,6-dihydropyridazin-4-yl)pyrrolidin-3-yl cyclopentylcarbamate] |
| 0.001 to 10 | 0.001 to 10 | N#Cc1c(N2CC[C@@H](OC(=O)NC3CCC(F)(F)CC3)C2)cnn(CCO)c1=O [P-0497, (R)-1-(5-cyano-1-(2-hydroxyethyl)-6-oxo-1,6-dihydropyridazin-4-yl)pyrrolidin-3-yl (4,4-difluorocyclohexyl)carbamate] |
| 0.001 to 10 | 0.001 to 10 | Cc1onc(C(=O)N2CCC(NC(=O)O[C@@H]3CCN(c4cn[nH]c(=O)c4Cl)C3)CC2)c1C [P-0498, (R)-1-(5-chloro-6-oxo-1,6-dihydropyridazin-4-yl)pyrrolidin-3-yl (1-(4,5-dimethylisoxazole-3-carbonyl)piperidin-4-yl)carbamate] |
